pEC50, pIC50, pKi: −log10 of the molar value. Activity calls are given as the source filed them. The rule behind the calls is not given here.
Experiments:
[1] = Growth inhibition of human M07e cells; format: functional; settings: Homo sapiens, M-07e
SKM-1 = test: Growth inhibition of human SKM1 cells; format: functional; settings: Homo sapiens, SKM-1
OCI-AML-3 = test: Growth inhibition of human OCI-AML3 cells; format: functional; settings: Homo sapiens, OCI-AML-3
NB-4 = test: Growth inhibition of human NB4 cells; format: functional; settings: Homo sapiens, NB-4
Ramos = test: Growth inhibition of human Ramos cells; format: functional; settings: Homo sapiens, Ramos
SU-DHL-2 = test: Growth inhibition of human SU-DHL-2 cells; format: functional; settings: Homo sapiens, SU-DHL-2
[2] = target: T1, Tyrosine-protein kinase BTK (Homo sapiens, UniProt Q06187); test: Irreversible inhibition of recombinant full length wild-type 3'-FLAG-tagged BTK (unknown origin) expressed in HEK293T cells assessed as reduction in Y223 phosphorylation measured after 4 hrs by Western blot method; format: cell-based
T1 sequence (Q06187 whole entry): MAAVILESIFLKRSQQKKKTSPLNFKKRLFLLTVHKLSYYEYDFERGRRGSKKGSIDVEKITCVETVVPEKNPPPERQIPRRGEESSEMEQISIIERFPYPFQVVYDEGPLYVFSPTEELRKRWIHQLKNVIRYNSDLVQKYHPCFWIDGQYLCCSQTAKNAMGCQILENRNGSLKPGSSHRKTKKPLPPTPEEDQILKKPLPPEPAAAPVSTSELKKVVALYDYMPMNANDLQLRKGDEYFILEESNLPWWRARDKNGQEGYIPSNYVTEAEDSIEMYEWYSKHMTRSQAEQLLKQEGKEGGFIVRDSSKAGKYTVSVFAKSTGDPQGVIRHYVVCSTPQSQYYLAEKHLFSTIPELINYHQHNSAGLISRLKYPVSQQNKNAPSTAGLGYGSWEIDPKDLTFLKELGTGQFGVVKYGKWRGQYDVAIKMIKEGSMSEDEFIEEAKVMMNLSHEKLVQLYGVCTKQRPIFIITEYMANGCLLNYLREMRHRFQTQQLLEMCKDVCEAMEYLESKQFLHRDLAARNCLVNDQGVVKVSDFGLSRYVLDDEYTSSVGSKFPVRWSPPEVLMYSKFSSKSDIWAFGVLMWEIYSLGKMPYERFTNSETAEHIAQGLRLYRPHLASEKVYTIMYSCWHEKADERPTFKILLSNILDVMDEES

[3] = target: Tyrosine-protein kinase BTK (Homo sapiens, UniProt Q06187, C481S); test: Irreversible inhibition of recombinant full length 3'-FLAG-tagged BTK C481S mutant (unknown origin) expressed in HEK293T cells assessed as reduction in Y223 phosphorylation measured after 4 hrs by Western blot method; format: cell-based
Sequence of Tyrosine-protein kinase BTK (Homo sapiens, UniProt Q06187, C481S) (Q06187 2-659 C481S limits assumed): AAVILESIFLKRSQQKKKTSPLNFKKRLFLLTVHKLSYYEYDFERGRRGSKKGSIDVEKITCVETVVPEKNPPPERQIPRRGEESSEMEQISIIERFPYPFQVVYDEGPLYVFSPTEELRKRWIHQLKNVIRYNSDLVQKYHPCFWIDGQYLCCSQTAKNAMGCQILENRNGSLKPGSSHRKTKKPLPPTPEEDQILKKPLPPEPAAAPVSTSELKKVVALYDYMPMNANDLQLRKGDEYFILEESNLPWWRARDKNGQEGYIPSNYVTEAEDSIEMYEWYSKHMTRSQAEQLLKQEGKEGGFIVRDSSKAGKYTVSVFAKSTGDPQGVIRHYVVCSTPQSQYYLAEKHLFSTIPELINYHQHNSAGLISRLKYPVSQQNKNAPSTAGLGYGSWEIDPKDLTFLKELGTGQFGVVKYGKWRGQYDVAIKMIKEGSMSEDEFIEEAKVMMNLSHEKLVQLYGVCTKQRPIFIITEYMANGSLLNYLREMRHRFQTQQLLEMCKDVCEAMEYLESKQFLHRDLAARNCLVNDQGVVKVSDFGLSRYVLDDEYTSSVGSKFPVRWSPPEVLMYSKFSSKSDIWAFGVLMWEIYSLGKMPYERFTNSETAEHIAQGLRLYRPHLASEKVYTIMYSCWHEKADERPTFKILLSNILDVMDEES

U2932 [4] = test: Growth inhibition of human U2932 cells; format: functional; settings: Homo sapiens, U2932
U2932 [5] = test: Cell cycle arrest in human U2932 cells assessed as increase in accumulation at G0/G1 phase at 10 uM after 48 hrs by propidium iodide/RNase staining based flow cytometric method; format: functional
MV4-11 = test: Growth inhibition of human MV411 cells; format: functional; settings: Homo sapiens, MV4-11
U-937 = test: Growth inhibition of human U937 cells; format: functional; settings: Homo sapiens, U-937
Pfeiffer [6] = test: Growth inhibition of human Pfeiffer cells; format: functional; settings: Homo sapiens, Pfeiffer
[7] = target: T1, Tyrosine-protein kinase BTK; test: Inhibition of full length recombinant human N-terminal His tagged […] expressed in baculovirus infected Sf9 insect cells using poly (Glu,Tyr)4:1 as substrate pretreated for 60 mins followed by substrate addition after 1 hr by ADP-Glo luminescence assay
Pfeiffer [8] = test: Cell cycle arrest in human Pfeiffer cells assessed as increase in accumulation at G0/G1 phase at 10 uM after 48 hrs by propidium iodide/RNase staining based flow cytometric method; format: functional
[9] = Tmax in Sprague-Dawley rat at 10 mg/kg, po by LC-MS/MS method; format: ADME, organism-based; settings: in vivo
[10] = AUC (0 to t) in Sprague-Dawley rat at 10 mg/kg, po by LC-MS/MS method; format: ADME, organism-based; settings: in vivo
[11] = Cmax in Sprague-Dawley rat at 1 mg/kg, iv by LC-MS/MS method; format: ADME, organism-based; set-up: dose 1 mg/kg, route intravenous; settings: in vivo
[12] = Oral bioavailability in Sprague-Dawley rat at 10 mg/kg by LC-MS/MS method; format: ADME, organism-based; settings: in vivo
[13] = target: T1, Tyrosine-protein kinase BTK; test: Reversible inhibition of full length recombinant human N-terminal His tagged […] expressed in baculovirus infected Sf9 insect cells using poly (Glu,Tyr)4:1 as substrate pretreated for 2 to 60 mins followed by substrate addition after 1 hr by ADP-Glo luminescence assay
[14] = MRT (0 to t) in Sprague-Dawley rat at 1 mg/kg, iv by LC-MS/MS method; format: ADME, organism-based; settings: in vivo
[15] = Cmax in Sprague-Dawley rat at 10 mg/kg, po by LC-MS/MS method; format: ADME, organism-based; set-up: dose 10 mg/kg, route oral; settings: in vivo
[16] = target: T2, Tyrosine-protein kinase JAK3 (Homo sapiens, UniProt P52333); test: Inhibition of recombinant human N-terminal GST-tagged JAK3 (781 to end residues) expressed in baculovirus infected Sf9 insect cells using poly (Glu,Tyr)4:1 as substrate pretreated for 60 mins followed by substrate addition after 1 hr by ADP-Glo luminescence assay
T2 sequence (P52333 whole entry): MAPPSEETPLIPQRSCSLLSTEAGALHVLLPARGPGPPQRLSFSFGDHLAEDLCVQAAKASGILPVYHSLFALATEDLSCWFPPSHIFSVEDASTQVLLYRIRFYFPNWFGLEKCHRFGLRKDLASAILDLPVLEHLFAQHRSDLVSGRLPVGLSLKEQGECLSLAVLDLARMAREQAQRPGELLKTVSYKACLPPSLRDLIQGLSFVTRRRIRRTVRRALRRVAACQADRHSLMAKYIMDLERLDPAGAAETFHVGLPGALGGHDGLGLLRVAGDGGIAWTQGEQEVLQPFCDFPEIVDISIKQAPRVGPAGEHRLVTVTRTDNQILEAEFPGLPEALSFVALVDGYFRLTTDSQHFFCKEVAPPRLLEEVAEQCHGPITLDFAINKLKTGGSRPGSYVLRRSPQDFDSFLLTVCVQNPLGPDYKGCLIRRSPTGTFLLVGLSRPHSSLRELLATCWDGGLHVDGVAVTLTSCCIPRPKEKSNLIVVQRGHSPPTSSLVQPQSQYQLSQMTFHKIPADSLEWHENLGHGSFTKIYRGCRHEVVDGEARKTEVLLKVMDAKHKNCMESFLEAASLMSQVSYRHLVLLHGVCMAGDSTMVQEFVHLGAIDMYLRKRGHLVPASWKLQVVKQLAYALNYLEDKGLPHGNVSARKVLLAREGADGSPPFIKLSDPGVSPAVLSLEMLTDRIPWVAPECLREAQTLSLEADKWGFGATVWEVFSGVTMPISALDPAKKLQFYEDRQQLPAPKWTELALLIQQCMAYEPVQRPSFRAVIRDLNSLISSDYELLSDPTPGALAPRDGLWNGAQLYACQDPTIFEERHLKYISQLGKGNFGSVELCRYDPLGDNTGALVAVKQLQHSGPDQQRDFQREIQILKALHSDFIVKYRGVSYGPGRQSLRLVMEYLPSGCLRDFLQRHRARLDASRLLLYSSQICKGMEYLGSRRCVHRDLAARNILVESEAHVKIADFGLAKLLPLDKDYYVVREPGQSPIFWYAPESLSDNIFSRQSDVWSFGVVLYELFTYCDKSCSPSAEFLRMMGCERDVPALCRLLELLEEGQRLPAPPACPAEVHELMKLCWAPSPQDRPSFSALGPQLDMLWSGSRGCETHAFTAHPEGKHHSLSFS

[17] = target: Epidermal growth factor receptor (Homo sapiens, UniProt P00533); test: Inhibition of recombinant human N-terminal GST-tagged wild-type EGFR (695 to end residues) expressed in baculovirus infected Sf9 insect cells using poly (Glu,Tyr)4:1 as substrate pretreated for 60 mins followed by substrate addition after 1 hr by ADP-Glo luminescence assay
Sequence of Epidermal growth factor receptor (P00533 whole entry): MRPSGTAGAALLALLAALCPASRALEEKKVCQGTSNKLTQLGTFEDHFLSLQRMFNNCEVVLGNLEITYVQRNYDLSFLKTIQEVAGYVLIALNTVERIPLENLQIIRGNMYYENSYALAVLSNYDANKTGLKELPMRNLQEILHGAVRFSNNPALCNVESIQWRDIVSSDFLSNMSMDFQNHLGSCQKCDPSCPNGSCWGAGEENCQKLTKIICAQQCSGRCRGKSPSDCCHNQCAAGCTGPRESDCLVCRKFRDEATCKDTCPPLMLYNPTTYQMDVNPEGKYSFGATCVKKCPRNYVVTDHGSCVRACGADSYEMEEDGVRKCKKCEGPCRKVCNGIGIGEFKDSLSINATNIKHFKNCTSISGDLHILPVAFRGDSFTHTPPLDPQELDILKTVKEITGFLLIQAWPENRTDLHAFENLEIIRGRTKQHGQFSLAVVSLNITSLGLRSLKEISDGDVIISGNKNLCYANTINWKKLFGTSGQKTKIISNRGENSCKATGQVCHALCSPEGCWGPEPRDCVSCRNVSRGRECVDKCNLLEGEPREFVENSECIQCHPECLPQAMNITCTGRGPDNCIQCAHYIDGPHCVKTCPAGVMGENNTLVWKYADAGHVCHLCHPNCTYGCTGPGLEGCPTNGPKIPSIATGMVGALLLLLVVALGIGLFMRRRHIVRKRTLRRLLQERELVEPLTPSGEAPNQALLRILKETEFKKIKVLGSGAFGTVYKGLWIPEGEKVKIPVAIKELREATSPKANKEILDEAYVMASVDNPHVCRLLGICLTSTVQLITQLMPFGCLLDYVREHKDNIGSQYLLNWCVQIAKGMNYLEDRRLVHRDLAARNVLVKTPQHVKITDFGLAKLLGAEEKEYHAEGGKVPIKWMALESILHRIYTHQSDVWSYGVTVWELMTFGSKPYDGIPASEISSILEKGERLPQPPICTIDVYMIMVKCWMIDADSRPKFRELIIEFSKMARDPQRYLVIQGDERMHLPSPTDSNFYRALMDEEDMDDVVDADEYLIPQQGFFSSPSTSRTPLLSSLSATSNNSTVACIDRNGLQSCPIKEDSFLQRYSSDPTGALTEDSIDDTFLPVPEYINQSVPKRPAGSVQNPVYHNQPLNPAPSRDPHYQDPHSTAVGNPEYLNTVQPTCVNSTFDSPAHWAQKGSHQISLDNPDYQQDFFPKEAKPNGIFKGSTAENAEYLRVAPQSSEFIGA

[18] = target: T1, Tyrosine-protein kinase BTK
[19] = Elimination half-life in Sprague-Dawley rat at 1 mg/kg, iv by LC-MS/MS method; format: ADME, organism-based; settings: in vivo, read-out: beta t1/2 (converted)
PBMC = test: Cytotoxicity against PBMC (unknwon origin); format: cell-based
[20] = AUC (0 to infinity) in Sprague-Dawley rat at 1 mg/kg, iv by LC-MS/MS method; format: ADME, organism-based; set-up: dose 1 mg/kg, route intravenous, time infinity; settings: in vivo
[21] = Elimination half-life in Sprague-Dawley rat at 10 mg/kg, po by LC-MS/MS method; format: ADME, organism-based; settings: in vivo, read-out: beta t1/2 (converted)
[22] = AUC (0 to t) in Sprague-Dawley rat at 1 mg/kg, iv by LC-MS/MS method; format: ADME, organism-based; settings: in vivo
[23] = Tmax in Sprague-Dawley rat at 1 mg/kg, iv by LC-MS/MS method; format: ADME, organism-based; settings: in vivo
[24] = MRT (0 to t) in Sprague-Dawley rat at 10 mg/kg, po by LC-MS/MS method; format: ADME, organism-based; settings: in vivo
[25] = AUC (0 to infinity) in Sprague-Dawley rat at 10 mg/kg, po by LC-MS/MS method; format: ADME, organism-based; set-up: dose 10 mg/kg, route oral, time infinity; settings: in vivo

| Compound | GI50 [1] | GI50 (SKM-1) | GI50 (OCI-AML-3) | GI50 (NB-4) | GI50 (Ramos) | GI50 (SU-DHL-2) | GI50 (U2932 [4]) | GI50 (MV4-11) | GI50 (U-937) | GI50 (Pfeiffer [6]) | pIC50 [7] | Tmax [9] | AUC(0-t) [10] | Cmax [11] | bioavailability [12] | pKi [13] | MRT last [14] | Cmax [15] | pIC50 [16] | pIC50 [17] | other results |
| --- | --- | --- | --- | --- | --- | --- | --- | --- | --- | --- | --- | --- | --- | --- | --- | --- | --- | --- | --- | --- | --- |
| CCC(=O)Nc1cc(Nc2cc(-c3cccc(NC(=O)c4ccc(C(C)(C)C)cc4)c3C)cn(C)c2=O)ccc1C(=O)N1CCOCC1 | > 10000 nM | > 10000 nM | 9500 nM | > 10000 nM | 4600 nM | > 10000 nM | > 10000 nM | 4800 nM | > 10000 nM | > 10000 nM | 6.79 |  |  |  |  |  |  |  |  |  | pEC50 [2]: < 7.00; pEC50 [3]: < 7.00; Activity (U2932 [5]): inactive; Activity (Pfeiffer [8]): inactive |
| C=CC(=O)Nc1cc(Nc2cc(-c3cccc(NC(=O)c4ccc(N(C)C)cc4)c3C)cn(C)c2=O)ccc1C(=O)N1CCOCC1 | 3200 nM | 1000 nM | 2600 nM | 1900 nM | 2100 nM | 2600 nM | 6900 nM | 1900 nM | 2600 nM | 9000 nM | 8.24 | 4.98 min | 151 ng·h/mL | 2440 ng/mL | 4.76% | 6.95 | 9.6 min | 144 ng/mL | 5.70 | 5.23 | Kinact [18]: 0.33 min⁻¹; half-life [19]: 14.4 min; Activity (PBMC): Non-Toxic; AUC(0-inf) [20]: 317 ng·h/mL; half-life [21]: 472 min; AUC(0-t) [22]: 317 ng·h/mL; Tmax [23]: 1.02 min; MRT last [24]: 203 min; AUC(0-inf) [25]: 291 ng·h/mL |
| C=CC(=O)Nc1cc(Nc2cc(-c3cccc(NC(=O)c4cc5c(s4)CCCC5)c3C)cn(C)c2=O)ccc1C(=O)N1CCOCC1 | 2800 nM | 2800 nM | 2300 nM | 2400 nM | 1200 nM | 1800 nM | 2300 nM | 2200 nM | 1600 nM | 3500 nM | 7.78 | 90 min | 1790 ng·h/mL | 7620 ng/mL | 11.5% | 8.22 | 26.5 min | 1120 ng/mL | 5.99 | 5.16 | Kinact [18]: 0.05 min⁻¹; half-life [19]: 36.5 min; Activity (PBMC): Non-Toxic; AUC(0-inf) [20]: 1560 ng·h/mL; half-life [21]: 232 min; AUC(0-t) [22]: 1560 ng·h/mL; Tmax [23]: 1.02 min; MRT last [24]: 141 min; AUC(0-inf) [25]: 1900 ng·h/mL |

Source: ChEMBL document CHEMBL4024706 (Eur J Med Chem, 2017)
